# Marks after values point to notes of the source that are not given here.
# Key:
# Type in all cases: in vivo, Male Golden Syrian hamsters
# [1] = test system: intestinal ABCG5 mRNA; experiment: Example 1: intestinal ABCG5 mRNA expression, real-time PCR; conditions: intestine; relative expression in reference to a housekeeping gene; Example 1, 4 weeks
# Description: Experiments were also conducted to determine the effect on the expression of genes associated with cholesterol in the liver and intestine. Total RNA was extracted and mRNA was converted to cDNA. The mRNA expression was measured by real-time PCR with four repeats and calculated as relative expression in reference to internal control of a housekeeping gene for each sample. […] The function of ABCG5 and ABCG8 in the intestine is to transport cholesterol out of enterocytes and back to the intestine for elimination via the feces. […] The observation of our study (Example 1) has provided a strong support to the synergistic action of BBRCI and PS on cholesterol reduction.
# [2] = test system: hamsters fed an atherogenic control diet; experiment: Example 1: four week hamster study, plasma cholesterol and triglyceride levels
# Description: A controlled, four week animal study was performed to compare and contrast the effects of three interventional strategies on blood cholesterol and triglyceride levels. Four randomized groups of 15 male Golden Syrian hamsters were fed isocaloric diets as follows: • Control a semi-synthetic casein-corn starch-sucrose diet that contained 0.15% (w/w) cholesterol and 5% (w/w) fat • BBRCI control diet containing 100 mg/kg·d of BBRCI • PS control diet containing 1% (w/w) PS • BBRCI+PS control diet containing 100 mg/kg·d BBRCI and 1% (w/w) PS BBRCI and PS were introduced into the diet by blending. The primary endpoint at the end of the study was to determine the effects of each intervention on circulating blood lipids including total cholesterol (T-C), high-density-lipoprotein cholesterol (HDL-C), nonHDL-C (which is indicative of LDL-C levels) and triglyceride (TG) profiles. All lipids were measured by the standard enzymatic method. Male Golden Syrian Hamsters were purchased from Charles River Co. housed individually in cages for two weeks prior to the commencement of the study. During this adjustment period, animals were fed with regular rodent chow diet with free access to both food and water. A total of 60 hamsters were weighed and randomly assigned to one of four groups of 15 animals each. Animals are subjected to a temperature-controlled environment with a 12:12 h light/dark cycle. Each group was fed with one of the four isocaloric experimental diets for a 4 week period. […] During the course of the experiment, animals were weighed weekly and food consumption was determined on a daily basis over the course of the experiment. At the conclusion of the study all animals were anaesthetized with isoflurane and killed by decapitation. Blood samples were collected into tubes containing ethylenediaminetetraacetic acid (EDTA). Red blood cells and plasma were separated and stored at −80° C. until further analysis. Plasma was analyzed for total cholesterol, HDL-C and TG concentrations, for which results are reported below. NonHDL-C was calculated by subtracting HDL-C from total cholesterol. FIGS. 1-3 and Table 2 represent the effects of BBRCI and PS alone or in combination on blood cholesterol and triglyceride levels. Values are means±SD, n=15. Data were analyzed by one-way ANOVA followed by Tukey test if significance was detected. A significant difference was indicated by a p<0.05.
# [3] = test system: liver CYP27A1 mRNA; experiment: Example 1: liver CYP27A1 mRNA expression, real-time PCR; conditions: relative expression in reference to a housekeeping gene, Example 1, 4 weeks
# Description: Experiments were also conducted to determine the effect on the expression of genes associated with cholesterol in the liver and intestine. Total RNA was extracted and mRNA was converted to cDNA. The mRNA expression was measured by real-time PCR with four repeats and calculated as relative expression in reference to internal control of a housekeeping gene for each sample. Table 5, FIG. 8b and FIG. 8c summarize the effect of BBRCI and PS on the mRNA expression of CYP7A1 and CYP27A1 in the liver. BBRCI and PS alone tended to increase mRNA expression of both genes. CYP7A1 and CYP27A1 are two rate-limiting enzymes controlling bile acid synthesis, which is one mechanism through which the body removes cholesterol by converting it into bile acids. When BBRCI and PS were combined, a synergistic action appeared to happen.
# [4] = Example 1, 4 weeks, BBRCI 100 mg/kg·d and/or PS 1% (w/w)
# [5] = Example 1, BBRCI 100 mg/kg·d, PS 1% (w/w)
# [6] = plasma, 0.15% cholesterol diet, 4 weeks, BBRCI 100 mg/kg·d and/or PS 1% (w/w), means±SD, n=15
smiles,measurement,setting,value
"COc1ccc2cc3[n+](cc2c1OC)CCc1cc2c(cc1-3)OCO2 [BBRCI, Berberine chloride]",ABCG5 mRNA expression,[1],2.37 ± 0.70^a
same,HDL-C % difference from Control,[2]; [4],−16.2%
same,HDL-C/nonHDL-C % difference from Control,[2]; [4],19%
same,T-C % difference from Control,[2]; [4],−21.9%
same,TG % difference from Control,[2]; [4],−3.9%
same,nonHDL-C % difference from Control,[2]; [4],−28.2%
same,reduction of T-C relative to control,[2]; [5],22%
same,reduction of nonHDL-C relative to control,[2]; [5],28%
same,reduction of plasma TG levels,"[2]; Example 1, relative to control, BBRCI 100 mg/kg·d, PS 1% (w/w)",4%
same,T-C Concentration,"[2]; plasma, 0.15% cholesterol diet, 4 weeks, BBRCI 100 mg/kg·d and/or PS 1% (w/w) in diet, means±SD, n=15",169 ± 20^b mg/dl
same,HDL-C Concentration,[2]; [6],100 ± 17^b mg/dl
same,TG Concentration,[2]; [6],326 ± 111^a mg/dl
same,nonHDL-C Concentration,"[2]; plasma, calculated by subtracting HDL-C from total cholesterol, 0.15% cholesterol diet, 4 weeks, BBRCI 100 mg/kg·d and/or PS 1% (w/w), n=15",66 ± 14^b mg/dl
same,HDL-C/nonHDL-C,"[2]; ratio, plasma, 0.15% cholesterol diet, 4 weeks, BBRCI 100 mg/kg·d and/or PS 1% (w/w), n=15",1.60 ± 0.58^b
same,CYP27A1 mRNA expression,[3],1.27 ± 0.31
